In patent US5436229A, “Bisulfite adducts of arginine aldehydes” (Eli Lilly and Company, priority 1994, dated 1995):
Non-standard residues stand in square brackets, D forms with d. Residues, ends and D or L forms follow the SMILES beside them. dNMeCha = CN[C@H](CC1CCCCC1)C(=O)O

Assays:
[1] = Epimerization inhibition by sodium bisulfite (compound of Example 75); assay type: physicochemical; settings: pH 7.4, 50° C.
Description: A 55.55 mM aqueous sodium phosphate solution (adjusted to pH 7.4 with sodium hydroxide) was mixed with an aqueous 27.77 mM sodium bisulfite/27.77 mM sodium phosphate solution (adjusted to pH 7.4 with sodium hydroxide) and water in various ratios to produce buffers containing 0, 5.55, 11.11, 16.66, 22.22 and 27.77 mM sodium bisulfite. A 0.9 ml aliquot of each sodium bisulfite/phosphate buffer was added to separate 13×100 mm culture tubes and placed in a 50° C. Tempblok® heater for 15 minutes. To each culture tube 0.1 ml of a 1 mg/ml aqueous solution of the compound of Example 75 was added and mixed well. […] These samples were allowed to react for 30 minutes at 60° C. and were then evaporated to dryness with nitrogen in a 55° C. N-Evap. The residue was dissolved in 1 ml of methanol and transferred to Varian Si BondElut SPE columns (1 ml) previously conditioned with 2 ml of water then 2 ml of methanol. The dissolved samples were pulled through slowly with a slight vaccum, and the sorbent layer was then washed with 2-1 ml volumes of methanol. The SPE columns were then dried at full vacuum (~25 in. Hg) then 500 μl of 500 mM potassium chloride was passed through the SPE columns. The compounds of interest were eluted with 300 μl of methanol/500 mM potassium chloride (1:1, v/v) into 12×75 mm culture tubes. These eluates were analyzed by the HPLC system described below.
The mobile phase was acetonitrile/methanol/500 mM ammonium acetate pH 7 (3:3:4, v/v) pumped at 1 ml/min with a Shimadzu LC-10AD pump. The column was a Zorbax SB-C8 150×4.6 mm maintained at 40° C. with a Jones Chromatography 7960 column heater. Fifty microliter injections were made with a Waters WISP 712 autosampler. Detection was accomplished with a Kratos 783 UV detector at 360 nm. The percentage of the DLD isomer was calculated using the peak areas of the DLL and DLD isomers in the chromatograms and the following equation: [formula]

factor Xa = target: T1, factor Xa (Homo sapiens, UniProt P00742); assay: Serine protease inhibition (Kass), factor Xa; assay type: biochemical
T1 construct: Human factors X, Xa, IXa, XIa, and XIIa are purchased from Enzyme Research Laboratories; purchased Enzyme Research Laboratories, South Bend, Ind
T1 sequence (P00742 235-488 limits assumed): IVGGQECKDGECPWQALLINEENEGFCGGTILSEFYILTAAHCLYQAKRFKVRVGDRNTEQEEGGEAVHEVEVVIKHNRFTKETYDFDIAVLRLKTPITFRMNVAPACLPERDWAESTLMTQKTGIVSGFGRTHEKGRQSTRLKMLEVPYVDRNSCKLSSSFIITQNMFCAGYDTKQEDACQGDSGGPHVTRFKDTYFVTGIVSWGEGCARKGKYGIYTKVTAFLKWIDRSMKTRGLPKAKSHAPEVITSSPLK
T1 sequence (P00742 41-179 partner limits assumed): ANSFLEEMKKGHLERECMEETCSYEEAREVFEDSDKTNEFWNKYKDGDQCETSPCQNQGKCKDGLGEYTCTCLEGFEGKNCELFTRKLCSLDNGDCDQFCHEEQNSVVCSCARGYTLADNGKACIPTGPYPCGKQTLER
Summary of the method: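 Chromogenic p-nitroanilide substrate assays run as for human thrombin; trypsin with N-Benzoyl-Phe-Val-Arg-p-nitroanilide, human factor Xa with N-Benzoyl-Ile-Glu-Gly-Arg-p-nitroanilide. Values are association constants (Kass).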

## CN[C@H](CC1CCCCC1)C(=O)N1CCC[C@H]1C(=O)N[C@H](C=O)CCCNC(=N)N.Cl [Example 75, N-methyl-D-cyclohexylalanyl-L-Prolinyl-L-Arginine Aldehyde Hydrochloride] (H-[dNMeCha]-Pro-Arg-aldehyde)
[1]; sodium bisulfite 0 mM, 0 hr
  Percentage of DLD Isomer: 7.33%
[1]; sodium bisulfite 0 mM, 0.5 hr
  Percentage of DLD Isomer: 31.91%
[1]; sodium bisulfite 0 mM, 2 hr
  Percentage of DLD Isomer: 48.95%
[1]; sodium bisulfite 0 mM, 3 hr
  Percentage of DLD Isomer: 50.21%
[1]; sodium bisulfite 0 mM, 4 hr
  Percentage of DLD Isomer: 50.27%
[1]; sodium bisulfite 0 mM, 6 hr
  Percentage of DLD Isomer: 50.03%
[1]; sodium bisulfite 0 mM, 8 hr
  Percentage of DLD Isomer: 50.15%
[1]; sodium bisulfite 0 mM, […]
  Percentage of DLD Isomer: 44.72%
[1]; sodium bisulfite 5 mM, 0 hr
  Percentage of DLD Isomer: 7.35%
[1]; sodium bisulfite 5 mM, 0.5 hr
  Percentage of DLD Isomer: 14.64%
[1]; sodium bisulfite 5 mM, 2 hr
  Percentage of DLD Isomer: 34.64%
[1]; sodium bisulfite 5 mM, 3 hr
  Percentage of DLD Isomer: 42.75%
[1]; sodium bisulfite 5 mM, 4 hr
  Percentage of DLD Isomer: 47.21%
[1]; sodium bisulfite 5 mM, 6 hr
  Percentage of DLD Isomer: 48.75%
[1]; sodium bisulfite 5 mM, 8 hr
  Percentage of DLD Isomer: 49.61%
[1]; sodium bisulfite 5 mM, […]
  Percentage of DLD Isomer: 24.74%
[1]; sodium bisulfite 10 mM, 0 hr
  Percentage of DLD Isomer: 7.54%
[1]; sodium bisulfite 10 mM, 0.5 hr
  Percentage of DLD Isomer: 10.79%
[1]; sodium bisulfite 10 mM, 2 hr
  Percentage of DLD Isomer: 25.55%
[1]; sodium bisulfite 10 mM, 3 hr
  Percentage of DLD Isomer: 35.08%
[1]; sodium bisulfite 10 mM, 4 hr
  Percentage of DLD Isomer: 41.99%
[1]; sodium bisulfite 10 mM, 6 hr
  Percentage of DLD Isomer: 50.73%
[1]; sodium bisulfite 10 mM, 8 hr
  Percentage of DLD Isomer: 51.60%
[1]; sodium bisulfite 10 mM, […]
  Percentage of DLD Isomer: 17.72%
[1]; sodium bisulfite 15 mM, 0 hr
  Percentage of DLD Isomer: 8.37%
[1]; sodium bisulfite 15 mM, 0.5 hr
  Percentage of DLD Isomer: 10.31%
[1]; sodium bisulfite 15 mM, 2 hr
  Percentage of DLD Isomer: 21.41%
[1]; sodium bisulfite 15 mM, 3 hr
  Percentage of DLD Isomer: 28.54%
[1]; sodium bisulfite 15 mM, 4 hr
  Percentage of DLD Isomer: 35.26%
[1]; sodium bisulfite 15 mM, 6 hr
  Percentage of DLD Isomer: 46.26%
[1]; sodium bisulfite 15 mM, 8 hr
  Percentage of DLD Isomer: 50.58%
[1]; sodium bisulfite 15 mM, […]
  Percentage of DLD Isomer: 15.19%
[1]; sodium bisulfite 20 mM, 0 hr
  Percentage of DLD Isomer: 7.65%
[1]; sodium bisulfite 20 mM, 0.5 hr
  Percentage of DLD Isomer: 9.90%
[1]; sodium bisulfite 20 mM, 2 hr
  Percentage of DLD Isomer: 17.28%
[1]; sodium bisulfite 20 mM, 3 hr
  Percentage of DLD Isomer: 23.70%
[1]; sodium bisulfite 20 mM, 4 hr
  Percentage of DLD Isomer: 29.34%
[1]; sodium bisulfite 20 mM, 6 hr
  Percentage of DLD Isomer: 43.32%
[1]; sodium bisulfite 20 mM, 8 hr
  Percentage of DLD Isomer: 48.73%
[1]; sodium bisulfite 20 mM, […]
  Percentage of DLD Isomer: 12.88%
[1]; sodium bisulfite 25 mM, 0 hr
  Percentage of DLD Isomer: 8.16%
[1]; sodium bisulfite 25 mM, 0.5 hr
  Percentage of DLD Isomer: 9.47%
[1]; sodium bisulfite 25 mM, 2 hr
  Percentage of DLD Isomer: 14.78%
[1]; sodium bisulfite 25 mM, 3 hr
  Percentage of DLD Isomer: 18.66%
[1]; sodium bisulfite 25 mM, 4 hr
  Percentage of DLD Isomer: 24.34%
[1]; sodium bisulfite 25 mM, 6 hr
  Percentage of DLD Isomer: 37.60%
[1]; sodium bisulfite 25 mM, 8 hr
  Percentage of DLD Isomer: 46.26%
[1]; sodium bisulfite 25 mM, […]
  Percentage of DLD Isomer: 11.42%
Factor Xa
  Kass Xa: 5.6 L/mol × 10^6
